Results taken from patent publication US6642254B2, “Heterocyclic compounds and their therapeutic use” (Darwin Discovery, Ltd., priority 1998, dated 2003).
In brackets after ≈: the same amount, converted by molar mass. Like-named read-outs stand apart in the source and are kept apart here.

Tests used:
[1] = Solubility in water at pH 7; format: physicochemical
Procedure: The solubility of the compound of Example 8, in water at pH 7, was 0.2 mg/ml. The solubility of the corresponding free base, under the same conditions, was 0.002 mg/ml.

[2] = Pharmacokinetic profile in cannulated rats (oral dosing); format: in vivo; settings: rat, oral dose 3 mg/kg, plasma
Procedure: The pharmacokinetic profile of the compounds of the invention is determined in rats cannulated in the right carotid artery for blood collection. For iv dosing, the compound is prepared in a suitable formulation, for example 10% v/v DMSO, 50% v/v PEG 400 in water, and dosing is carried out by cannulation of the left jugular vein. Samples are collected at 5 min, 0.5, 1, 2, 4, 6 and 8 hours post-dosing. For oral dosing, the compound is prepared in a suitable formulation such as 0.4% w/v methylcellulose in water Samples are collected at 0.5, 1, 2, 4, 6 and 8 hours post-dosing. In some cases, samples are also collected at 12 hours post-dosing. Plasma is obtained by centrifugation of the each blood sample and drug concentration is then determined using standard methods, such as liquid chromatography-mass spectrometry following protein precipitation.
Results are tabulated below, and are also shown in the accompanying drawing. The drawing is a graph of PK data following oral dosing in the rat; PC (plasma concentration; ng/ml) is plotted against t (time; hours). ▪ represents the compound of Example 8, and · the free base. The superiority of the novel compound is evident.

solubility ([1]; aqueous buffer, read-out: solubility) | Cmax (po) [2] | AUC(0-t) ([2]; read-out: AUC0-last (po)) | half-life ([2]; read-out: t1/2 (po) (converted)) | solubility [1] | AUC0-last (po) [2] | t1/2 (po) [2] | Compound
2 µg/mL (≈ 4.81 µM) | 1008 ng/mL | 6860 ng·h/mL | 270 min |  |  |  | COc1ccc(C(=O)Nc2c(Cl)cncc2Cl)c2ccc(C(F)(F)F)nc12 [Free base, 8-Methoxy-2-trifluoromethylquinoline-5-carboxylic acid (3,5-dichloropyridin-4-yl)amide]
 | 3054 ng/mL |  |  | 200 µg/mL (≈ 463 µM) | 30169 ng·h/mL | 20 h | COc1ccc(C(=O)Nc2c(Cl)c[n+]([O-])cc2Cl)c2ccc(C(F)(F)F)nc12 [Example 8, 8-Methoxy-2-trifluoromethylquinoline-5-carboxylic Acid (3,5-dichloro-1-oxypyridin-4-yl)amide]
